Laboratory results as given in patent publication US20060069132A1, “Azolecarboxamide herbicides” (priority 2004, published 2006).

Columns and labels:
[1] = tested on: blackgrass; assay: Test B postemergence herbicide test; assay type: in vivo, Alopecurus myosuroides; details: postemergence, visual rating, scale 0 (no effect) to 100 (complete control)
Outline: (§1)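 Read-out: visual comparison with controls, scored 0 to 100, where 100 means complete control and 0 no effect. Formulated chemicals were applied postemergence to plants 2–18 cm tall (1- to 4-leaf), or to flooded-paddy plants at the 2-leaf stage, then held 13 to 15 days under glass.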

[2] = tested on: rice; assay: Test B pre-/postemergence herbicide test; assay type: in vivo, Oryza sativa; details: preemergence
Outline: (§2)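 Seeds were planted and treated preemergence with compounds formulated in a non-phytotoxic solvent mixture containing surfactant, while plants at the 1- to 4-leaf stage (2 to 18 cm) received postemergence sprays. Flooded paddy plants were grown to the 2-leaf stage. After 13 to 15 days in a greenhouse, injury was visually rated 0–100 against untreated controls.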

[3] = tested on: barnyardgrass; assay: Test B pre-/postemergence herbicide test; assay type: in vivo, Echinochloa crus-galli; details: for Barnyardgrass plant response rating: postemergence, visual rating, scale 0 (no effect) to 100 (complete control)
Outline: (§3)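 Pre: seeds sown, then sprayed. Post: 1–4-leaf plants (2–18 cm) sprayed at the same time. Paddy: flooded, treated at 2-leaf stage. Formulation: non-phytotoxic solvent with surfactant. Greenhouse 13–15 days; visual 0–100 score relative to controls.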

[4] = tested on: small flower umbrella sedge; assay: Test B flooded paddy test; assay type: in vivo, Cyperus difformis; details: 1000 g ai/ha, visual rating, scale 0 to 100 (0 no effect, 100 complete control), 13 to 15 days
Outline: as §1

[5] = tested on: lambsquarters; assay: Test B pre-/postemergence herbicide test; assay type: in vivo, Chenopodium album; details: for Lambsquarters plant response rating: postemergence, visual rating, scale 0 (no effect) to 100 (complete control)
Outline: as §2

[6] = tested on: corn; assay: Test B pre-/postemergence herbicide test; assay type: in vivo, Zea mays; details: for Corn plant response rating: postemergence, visual rating, scale 0 (no effect) to 100 (complete control)
Outline: as §2

[7] = tested on: morningglory; assay: Test B pre-/postemergence herbicide test; assay type: in vivo, Ipomoea coccinea; details: for Morningglory plant response rating: postemergence, visual rating, scale 0 (no effect) to 100 (complete control)
Outline: as §3

[8] = tested on: morningglory; assay: Test A pre-/postemergence herbicide test; assay type: in vivo, Ipomoea spp.
Outline: (§4)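 Pre: seeded sandy loam, directed soil spray, compound in non-phytotoxic solvent + surfactant. Post: 1–2-leaf plants (2–10 cm), sprayed to runoff. Greenhouse ~10 d; visual injury vs untreated, 0–100 scale.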

[9] = tested on: ducksalad; assay: Test B flooded paddy test; assay type: in vivo, Heteranthera limosa; details: 1000 g ai/ha, visual rating, scale 0 to 100 (0 no effect, 100 complete control), 13 to 15 days
Outline: as §1

[10] = tested on: pigweed; assay: Test B pre-/postemergence herbicide test; assay type: in vivo, Amaranthus retroflexus; details: for Pigweed plant response rating: postemergence, visual rating, scale 0 (no effect) to 100 (complete control)
Outline: as §2

[11] = tested on: velvetleaf; assay: Test A pre-/postemergence herbicide test; assay type: in vivo, Abutilon theophrasti
Outline: as §4

[12] = tested on: barnyardgrass; assay: Test A pre-/postemergence herbicide test; assay type: in vivo, Echinochloa crus-galli
Outline: as §4

[13] = tested on: redroot pigweed; assay: Test A pre-/postemergence herbicide test; assay type: in vivo, Amaranthus retroflexus
Outline: as §4

[14] = tested on: barnyardgrass; assay: Test B flooded paddy test; assay type: in vivo, Echinochloa crus-galli; details: 1000 g ai/ha, visual rating, scale 0 to 100 (0 no effect, 100 complete control), 13 to 15 days
Outline: as §1

[15] = tested on: giant foxtail; assay: Test A pre-/postemergence herbicide test; assay type: in vivo, Setaria faberi
Outline: as §4

[16] = tested on: giant foxtail; assay: Test B pre-/postemergence herbicide test; assay type: in vivo, Setaria faberi; details: for Foxtail, Giant plant response rating: postemergence, visual rating, scale 0 (no effect) to 100 (complete control)
Outline: as §2

[17] = tested on: large crabgrass; assay: Test B pre-/postemergence herbicide test; assay type: in vivo, Digitaria sanguinalis; details: for Crabgrass, Large plant response rating: postemergence, visual rating, scale 0 (no effect) to 100 (complete control)
Outline: as §2

[18] = tested on: cocklebur; assay: Test B pre-/postemergence herbicide test; assay type: in vivo, Xanthium strumarium; details: for Cocklebur plant response rating: postemergence, visual rating, scale 0 (no effect) to 100 (complete control)
Outline: as §3

[19] = tested on: rice; assay: Test B flooded paddy test; assay type: in vivo, Oryza sativa; details: 1000 g ai/ha, visual rating, scale 0 to 100 (0 no effect, 100 complete control), 13 to 15 days
Outline: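 Visual ratings, 0 (no effect) to 100 (complete control), made versus controls after 13–15 d greenhouse. Paddy plants treated at 2-leaf stage; postemergence plants at 1- to 4-leaf stage, 2–18 cm tall.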

[20] = tested on: large crabgrass; assay: Test A pre-/postemergence herbicide test; assay type: in vivo, Digitaria sanguinalis
Outline: as §4

[21] = tested on: velvetleaf; assay: Test B pre-/postemergence herbicide test; assay type: in vivo, Abutilon theophrasti; details: for Velvetleaf plant response rating: postemergence, visual rating, scale 0 (no effect) to 100 (complete control)
Outline: as §2

[22] = tested on: wild oat; assay: Test B postemergence herbicide test; assay type: in vivo, Avena fatua; details: postemergence, visual rating, scale 0 (no effect) to 100 (complete control)
Outline: as §1

[23] = tested on: Surinam grass; assay: Test B pre-/postemergence herbicide test; assay type: in vivo, Urochloa decumbens; details: for Surinam Grass plant response rating: postemergence, visual rating, scale 0 (no effect) to 100 (complete control)
Outline: as §2

[24] = tested on: wheat; assay: Test B postemergence herbicide test; assay type: in vivo, Triticum aestivum; parameters: key to Wheat plant response rating: 0 = no effect, 100 = complete control; details: postemergence, visual rating, scale 0 (no effect) to 100 (complete control)
Outline: as §1

[25] = 125 g ai/ha, 0 = no effect, 100 = complete control, preemergence
[26] = 500 g ai/ha, visual rating 0-100, 0 no effect, 100 complete control, preemergence
[27] = Postemergence, 500 g ai/ha, 0 to 100 scale, 0 no effect, 100 complete control
[28] = Postemergence, 2000 g ai/ha, 0 to 100 scale, 0 no effect, 100 complete control
[29] = Preemergence, 2000 g ai/ha, visual rating, 0 to 100 scale (0 no effect, 100 complete control)
[30] = preemergence, 500 g ai/ha, visual injury, 0 to 100 scale (0 no effect, 100 complete control)

Cc1nn(C(C)(C)C)cc1C(=O)Nc1cccc(OC(C)C)c1 [Compound 189]
Blackgrass plant response rating ([1]; 125 g ai/ha): 0
Blackgrass plant response rating ([1]; 500 g ai/ha): 0
Rice plant response rating (0 to 100 scale) ([2]; 125 g ai/ha, 0 = no effect, 100 = complete control): 0
Plant response rating, Rice ([2]; 500 g ai/ha, visual rating 0-100, 0 no effect, 100 complete control): 50
Barnyardgrass plant response rating (0 to 100 scale) [3, 25]: 0
Plant response rating, Barnyardgrass [3, 26]: 30
Barnyardgrass plant response rating ([3]; 125 g ai/ha): 0
Barnyardgrass plant response rating ([3]; 500 g ai/ha): 10
Sedge, Umbrella plant response rating [4]: 70
Lambsquarters plant response rating (0 to 100 scale) [5, 25]: 0
Plant response rating, Lambsquarters [5, 26]: 30
Lambsquarters plant response rating ([5]; 125 g ai/ha): 50
Lambsquarters plant response rating ([5]; 500 g ai/ha): 50
Corn plant response rating (0 to 100 scale) [6, 25]: 0
Plant response rating, Corn [6, 26]: 0
Corn plant response rating ([6]; 125 g ai/ha): 10
Corn plant response rating ([6]; 500 g ai/ha): 10
Plant response rating, Morningglory [7, 26]: 20
Morningglory plant response rating ([7]; 125 g ai/ha): 80
Morningglory plant response rating ([7]; 500 g ai/ha): 90
Morningglory plant response rating [8, 27]: 10
Plant response rating, Morningglory [8, 28]: 10
Morningglory plant response rating [8, 29]: 30
Morningglory plant response rating [8, 30]: 15
Ducksalad plant response rating [9]: 70
Pigweed plant response rating (0 to 100 scale) [10, 25]: 90
Plant response rating, Pigweed [10, 26]: 100
Pigweed plant response rating ([10]; 125 g ai/ha): 30
Pigweed plant response rating ([10]; 500 g ai/ha): 60
Velvetleaf plant response rating [11, 27]: 5
Plant response rating, Velvetleaf [11, 28]: 5
Velvetleaf plant response rating [11, 29]: 25
Velvetleaf plant response rating [11, 30]: 10
Barnyardgrass plant response rating [12, 27]: 0
Plant response rating, Barnyardgrass [12, 28]: 10
Barnyardgrass plant response rating [12, 29]: 65
Barnyardgrass plant response rating [12, 30]: 35
Pigweed plant response rating [13, 27]: 30
Plant response rating, Pigweed [13, 28]: 45
Pigweed plant response rating [13, 29]: 40
Pigweed plant response rating [13, 30]: 25
Barnyardgrass plant response rating [14]: 60
Foxtail, Giant plant response rating [15, 27]: 0
Plant response rating, Foxtail, Giant [15, 28]: 0
Foxtail, Giant plant response rating [15, 29]: 20
Foxtail, Giant plant response rating [15, 30]: 5
Foxtail, Giant plant response rating (0 to 100 scale) [16, 25]: 0
Plant response rating, Foxtail, Giant [16, 26]: 10
Foxtail, Giant plant response rating ([16]; 125 g ai/ha): 0
Foxtail, Giant plant response rating ([16]; 500 g ai/ha): 10
Crabgrass, Large plant response rating (0 to 100 scale) [17, 25]: 30
Plant response rating, Crabgrass, Large [17, 26]: 60
Crabgrass, Large plant response rating ([17]; 125 g ai/ha): 10
Crabgrass, Large plant response rating ([17]; 500 g ai/ha): 20
Cocklebur plant response rating (0 to 100 scale) [18, 25]: 0
Plant response rating, Cocklebur [18, 26]: 0
Cocklebur plant response rating ([18]; 125 g ai/ha): 0
Cocklebur plant response rating ([18]; 500 g ai/ha): 10
Rice plant response rating [19]: 40
Crabgrass, Large plant response rating [20, 27]: 10
Plant response rating, Crabgrass, Large [20, 28]: 10
Crabgrass, Large plant response rating [20, 29]: 75
Crabgrass, Large plant response rating [20, 30]: 55
Velvetleaf plant response rating (0 to 100 scale) [21, 25]: 0
Plant response rating, Velvetleaf [21, 26]: 20
Velvetleaf plant response rating ([21]; 125 g ai/ha): 20
Velvetleaf plant response rating ([21]; 500 g ai/ha): 20
Oat, Wild plant response rating ([22]; 125 g ai/ha): 10
Oat, Wild plant response rating ([22]; 500 g ai/ha): 10
Surinam Grass plant response rating (0 to 100 scale) [23, 25]: 0
Plant response rating, Surinam Grass [23, 26]: 20
Surinam Grass plant response rating ([23]; 125 g ai/ha): 10
Surinam Grass plant response rating ([23]; 500 g ai/ha): 20
Wheat plant response rating ([24]; 125 g ai/ha): 0
Wheat plant response rating ([24]; 500 g ai/ha): 0
